What was measured:
Type in all cases: binding
[1] = biological target: BRD4(1) (Homo sapiens, UniProt O60885); experiment: Thermal shift assay, BRD4(1); set-up: BRD4(1); purchased in-house (SGC bromodomain thermal shift / AlphaScreen panel)
Description: (§1) II.VII Thermal Shift Assay[6]
(§2) Thermal melting experiments were carried out using an Mx3005p Real Time PCR machine (Stratagene). Proteins were buffered in 10 mM HEPES pH 7.5, 500 mM NaCl and assayed in a 96-well plate at a final concentration of 2 μM in 20 μL volume. Compounds were added at a final concentration of 50 μM. SYPRO Orange (Molecular Probes) was added as a fluorescence probe at a dilution of 1:1000. Excitation and emission filters for the SYPRO-Orange dye were set to 465 nm and 590 nm, respectively. The temperature was raised with a step of 3 °C per minute from 25 °C to 96 °C and fluorescence readings were taken at each interval. The unfolding curves were fitted using the Boltzmann equation to determine the middle point of the transition.

[2] = biological target: T1, BRD3(2) (Homo sapiens, UniProt Q15059); experiment: Thermal shift assay, BRD3(2)
T1 construct: BRD3(2); purchased in-house (SGC bromodomain thermal shift / AlphaScreen panel)
Description: as §1, §2

[3] = biological target: T2, TRIM33B (Homo sapiens, UniProt Q9UPN9); experiment: Thermal shift assay, TRIM33B
T2 construct: Bromosporine with recombinant human bromodomain proteins; made in house
T2 sequence (Q9UPN9 957-1063 isoform Q9UPN9-2 limits assumed): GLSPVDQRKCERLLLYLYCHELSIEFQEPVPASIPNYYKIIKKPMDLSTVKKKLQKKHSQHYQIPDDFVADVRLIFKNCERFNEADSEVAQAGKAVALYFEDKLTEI
Description: as §1, §2

[4] = biological target: T3, BRPF1B (Homo sapiens, UniProt P55201); experiment: Thermal shift assay, BRPF1B
T3 construct: purchased in-house (SGC bromodomain thermal shift / AlphaScreen panel)
T3 sequence (P55201 1-1214): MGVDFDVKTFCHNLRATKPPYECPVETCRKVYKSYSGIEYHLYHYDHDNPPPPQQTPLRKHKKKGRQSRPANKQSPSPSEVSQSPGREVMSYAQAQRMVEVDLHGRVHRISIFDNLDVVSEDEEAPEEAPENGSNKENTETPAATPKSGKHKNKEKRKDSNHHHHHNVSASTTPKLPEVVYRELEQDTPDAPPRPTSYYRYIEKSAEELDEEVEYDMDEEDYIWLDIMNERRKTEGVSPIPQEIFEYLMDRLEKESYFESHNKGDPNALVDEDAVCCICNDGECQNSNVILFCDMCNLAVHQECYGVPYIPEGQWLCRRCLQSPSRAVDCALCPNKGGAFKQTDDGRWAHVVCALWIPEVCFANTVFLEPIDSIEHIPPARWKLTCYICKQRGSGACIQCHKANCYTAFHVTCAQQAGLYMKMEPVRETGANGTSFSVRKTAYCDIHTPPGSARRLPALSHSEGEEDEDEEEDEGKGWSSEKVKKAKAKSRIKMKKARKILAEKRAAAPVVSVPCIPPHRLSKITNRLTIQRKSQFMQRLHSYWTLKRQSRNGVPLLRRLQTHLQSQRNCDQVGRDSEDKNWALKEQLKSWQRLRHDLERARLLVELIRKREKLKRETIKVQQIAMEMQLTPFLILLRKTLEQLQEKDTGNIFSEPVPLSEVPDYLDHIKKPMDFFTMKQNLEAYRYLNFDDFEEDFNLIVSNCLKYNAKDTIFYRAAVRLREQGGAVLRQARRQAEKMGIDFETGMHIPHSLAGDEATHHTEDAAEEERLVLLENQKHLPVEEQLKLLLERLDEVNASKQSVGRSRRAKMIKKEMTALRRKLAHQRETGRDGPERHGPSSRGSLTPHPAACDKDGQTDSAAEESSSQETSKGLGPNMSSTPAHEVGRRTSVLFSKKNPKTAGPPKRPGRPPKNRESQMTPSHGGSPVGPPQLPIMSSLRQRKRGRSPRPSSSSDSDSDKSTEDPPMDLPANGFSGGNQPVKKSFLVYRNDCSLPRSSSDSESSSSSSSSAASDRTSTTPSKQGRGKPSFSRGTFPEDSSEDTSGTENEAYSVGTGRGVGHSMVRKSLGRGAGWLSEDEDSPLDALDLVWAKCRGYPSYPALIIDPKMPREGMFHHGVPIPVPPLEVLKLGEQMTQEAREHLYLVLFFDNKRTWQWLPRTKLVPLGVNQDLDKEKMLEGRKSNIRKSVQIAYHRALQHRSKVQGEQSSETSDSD

[5] = biological target: T4, SP140 (Homo sapiens, UniProt Q13342); experiment: Thermal shift assay, SP140
T4 construct: purchased in-house (SGC bromodomain thermal shift / AlphaScreen panel)
Description: as §1, §2

[6] = biological target: T5, PB1(1) (Homo sapiens, UniProt Q86U86); experiment: Thermal shift assay, PB1(1)
T5 construct: PB1(1); purchased in-house (SGC bromodomain thermal shift / AlphaScreen panel)
Description: as §1, §2

T5 sequence (Q86U86 43-156 limits assumed): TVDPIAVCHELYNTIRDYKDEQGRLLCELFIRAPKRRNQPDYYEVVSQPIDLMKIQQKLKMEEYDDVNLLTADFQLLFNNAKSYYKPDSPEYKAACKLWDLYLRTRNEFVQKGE
T1 sequence (Q15059 306-416 limits assumed): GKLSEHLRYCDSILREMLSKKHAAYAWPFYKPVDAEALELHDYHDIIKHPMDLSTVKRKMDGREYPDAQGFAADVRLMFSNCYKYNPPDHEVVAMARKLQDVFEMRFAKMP
T4 sequence (Q13342 whole entry): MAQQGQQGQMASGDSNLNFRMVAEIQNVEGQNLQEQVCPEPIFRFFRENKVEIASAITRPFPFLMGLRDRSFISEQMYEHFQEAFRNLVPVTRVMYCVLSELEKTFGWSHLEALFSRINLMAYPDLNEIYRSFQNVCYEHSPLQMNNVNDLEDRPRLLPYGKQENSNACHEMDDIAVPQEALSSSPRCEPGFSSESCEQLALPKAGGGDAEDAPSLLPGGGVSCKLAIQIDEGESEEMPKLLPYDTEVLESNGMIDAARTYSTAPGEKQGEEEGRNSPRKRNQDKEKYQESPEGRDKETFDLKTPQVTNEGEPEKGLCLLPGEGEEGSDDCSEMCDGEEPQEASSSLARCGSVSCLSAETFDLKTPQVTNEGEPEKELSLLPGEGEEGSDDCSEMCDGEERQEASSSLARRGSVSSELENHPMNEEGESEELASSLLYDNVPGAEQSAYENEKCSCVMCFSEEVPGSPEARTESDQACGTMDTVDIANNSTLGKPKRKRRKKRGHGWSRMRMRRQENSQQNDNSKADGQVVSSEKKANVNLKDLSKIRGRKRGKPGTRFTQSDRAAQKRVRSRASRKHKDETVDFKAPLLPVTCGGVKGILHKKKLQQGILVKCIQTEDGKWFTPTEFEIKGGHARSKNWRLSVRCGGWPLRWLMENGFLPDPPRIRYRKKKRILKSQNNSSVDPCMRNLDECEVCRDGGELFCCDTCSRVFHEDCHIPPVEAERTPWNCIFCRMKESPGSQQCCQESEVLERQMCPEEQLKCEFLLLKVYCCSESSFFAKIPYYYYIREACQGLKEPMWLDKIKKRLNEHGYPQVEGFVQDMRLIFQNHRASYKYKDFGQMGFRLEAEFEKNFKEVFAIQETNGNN

Question: How did the “Thermal stabilisation, BRD4(1)” value ([1]; 10 µM compound concentration) turn out when CCOC(=O)Nc1cc(-c2ccc(C)c(NS(C)(=O)=O)c2)nn2c(C)nnc12 [Bromosporine, reference compound] was run?
Answer: Its value is 6.61.

Question: And the “Thermal stabilisation, BRD3(2)” value ([2]; 10 µM compound concentration)?
Answer: The value was 6.56.

Question: What about the “Thermal stabilisation, TRIM33B” value ([3]; 10 µM compound concentration) of the same compound?
Answer: Its value is 0.03.

Question: What about the “Thermal stabilisation, BRPF1B” value ([4]; 10 µM compound concentration) of the same compound?
Answer: The value was 4.23.

Question: And the “Thermal stabilisation, SP140” value ([5]; 10 µM compound concentration)?
Answer: The value was -1.045.

Question: And the “Thermal stabilisation, PB1(1)” value ([6]; 10 µM compound concentration)?
Answer: The value was 0.98.

Question: For C[C@H]1CCCN1Cc1nc2cc(NC(=O)c3ccc4c(cnn4C)c3)ccc2[nH]1 [Compound 92], which “Thermal stabilisation, BRD4(1)” value ([1]; 50 μM compound) is on record?
Answer: Its value is -0.035.

Question: And the “Thermal stabilisation, BRD3(2)” value ([2]; 50 μM compound)?
Answer: The value was -0.1.

Question: What about the “Thermal stabilisation, TRIM33B” value ([3]; 50 μM compound) of the same compound?
Answer: Its value is -0.28.

Question: What about the “Thermal stabilisation, BRPF1B” value ([4]; 50 μM compound) of the same compound?
Answer: Its value is -0.435.

Question: What about the “Thermal stabilisation, SP140” value ([5]; 50 μM compound) of the same compound?
Answer: Its value is -0.915.

Question: And the “Thermal stabilisation, PB1(1)” value ([6]; 50 μM compound)?
Answer: Its value is -1.745.

Question: How did the “Thermal stabilisation, BRD4(1)” value ([1]; 50 μM compound) turn out when COC(=O)c1ccc(C(=O)Nc2ccc3[nH]c(CN4CCCCC4)nc3c2)cc1 [Compound 1] was run?
Answer: The value was 1.095.

Question: And the “Thermal stabilisation, BRD3(2)” value ([2]; 50 μM compound)?
Answer: Its value is 0.675.

Question: And the “Thermal stabilisation, TRIM33B” value ([3]; 50 μM compound)?
Answer: The value was 0.02.

Question: And the “Thermal stabilisation, BRPF1B” value ([4]; 50 μM compound)?
Answer: Its value is 0.275.

Question: What about the “Thermal stabilisation, SP140” value ([5]; 50 μM compound) of the same compound?
Answer: The value was -0.15.

Question: And the “Thermal stabilisation, PB1(1)” value ([6]; 50 μM compound)?
Answer: The value was -1.095.

Source: paper PMC6348381, “Discovery of an MLLT1/3 YEATS Domain Chemical Probe” (Angewandte Chemie (International Ed. in English), 2018)
